The results in this text go back to US6071905A, “Biologically active substance on the basis of tetracyclic nitrogen heterocycles of pyrimidine row” (Natural Drug Sciences, LLC, priority 1998, dated 2000).

≈ marks a conversion by molar mass, not a printed value.

The test system of one data set is M. tuberculosis H37Rv. The data set is described as follows: series culture (dilution) method, MIC, M. tuberculosis H37Rv. Particulars: Mycobacterium tuberculosis, 72 hour cultivation, 37° C., Soton medium with 10% horse serum. Format: cell-based. The procedure:
In order to determine antimicrobial activity standard strains Mycobacterium smegmatis ATCC607 and Mycobacterium tuberculosis H37RV were used which are sensitive to all antimicrobial compounds.
The evaluation of antimicrobial action was performed with the method of series culture (5). M. smegmatis ATCC607 for seeding was grown on liquid synthetic medium N-1.
The compounds were dissolved in dimethyl sulfoxide (DMSO) and tittered in medium N-1, so that this compound was contained in separate test tubes with the medium in concentration of 200-0.025 mg/l. The concentration of the compound in the medium of neighboring test tubes was differed twice. For the control, DMSO which was tittered the same as the compound, was utilized. Test strain of bacteria was added in the quantity 1-2×10^6 ml. The result was considered after 72 hour cultivation of test tubes at 37° C.
For M tuberculosis H37Rv conditions of experiment were identical, with the exception of the fact that bacteria were grown on the Soton medium which contains 10% horse serum, and density of microbial suspension during seeding was (5.0×10^6) in ml.
As the control, in both cases known tuberculostatic compounds were utilized.

In a further data set the test system is M. smegmatis ATCC607. As to the kind of experiment: series culture (dilution) method, MIC, M. smegmatis ATCC607. Format: cell-based, Mycobacterium smegmatis. Particulars: Mycolicibacterium smegmatis, 72 hour cultivation, 37° C., medium N-1.
Data set [1] deals with herpes virus I of the type (VPG-1/Leningrad/248/88). As to the kind of experiment: antiviral action on herpes virus in Vero cells (cytopathogenic action). Format: cell-based. Particulars: 36 hours, 38° C. Background: Cytopathic effects are the visible damage that an infection or toxin causes in cultured cells.
A further data set deals with M. avium 84. As to the kind of experiment: action on pathogenic mycobacteria from patients, Lowenstein-Jensen medium, M. avium 84. Conditions: title: concentration of compound 10.0 g/l; 30 days. Format: cell-based, Mycobacterium avium.
The next data set concerns Vero. The data set is described as follows: control of compounds (toxicity) on Vero cell culture. Format: cell-based.
Another data set has as its system C. trachomatis D323. The data set is described as follows: action on Chlamydia trachomatis in cell culture (McCoy and L929). Format: cell-based. Particulars: 48 hours.
Another data set can be described thus: in vivo. Conditions: mouse.
Data set [2] has as its system primary culture of human lymphocytes. As to the kind of experiment: interferon-inducing activity in primary culture of human lymphocytes (immuno-ferment assay). Format: cell-based. Particulars: 24 hours of incubation.
A further data set concerns M. bovis bovinus 8. Format: in vivo, M. bovis bovinus 8; no-breed male mice. Particulars: for Coefficient of lung mass / Index of damage lungs / Perished animals: 42 day after infection; for Coefficient of lung mass / Index of damage lungs / Seeding M.tub.: dose not given; for Perished animals: tested compounds orally (10, 20 and 30 mg/kg), streptomycin intramuscularly; for Seeding M.tub.: from spleen, CFU per 100 mg.

The MIC is the smallest concentration in the dilution series that meets the test's criterion for growth inhibition. Higher therefore signals a less susceptible organism. As for `O=c1c2cc(O)ccc2oc2nc3n(c(=O)c12)CCCS3` [R1=H, R2=OH, 3-hydroxy-5-oxo-5H-[1]-benzopyrano-[5,6-b]-4-oxo-4H-[1,2]-pyrimido-1,4,5,6-tetrahydro-1,3-thiazine], the values for the MIC against M. tuberculosis H37Rv and against M. smegmatis ATCC607 were 50 µg/mL (≈ 165 µM) and 100 µg/mL (≈ 331 µM), respectively.
Regarding `Nc1nc2c(ncn2COCCO)c(=O)[nH]1` [Acyclovir, reference compound], in [1] (10 mg/l), the “number of unchanged cells in 100 fields” value is listed as 8000.
In the case of `O=c1c2cc([N+](=O)[O-])cc(Br)c2oc2nc3n(c(=O)c12)CCCS3` [R1=Br, R2-NO2, 1-bromo-3-nitro-5-oxo-5H-[1]-benzopyrano-[5,6-b]-4-oxo-4H-[1,2]-pyrimido-1,4,5,6-tetrahydro-1,3-thiazine], the results for the MIC in the data set with M. tuberculosis H37Rv and in the data set with M. smegmatis ATCC607 were 25 µg/mL (≈ 60.9 µM) and 100 µg/mL (≈ 244 µM), respectively.
Take `CO[C@H]1/C=C/O[C@@]2(C)Oc3c(C)c(O)c4c(O)c(cc(O)c4c3C2=O)NC(=O)/C(C)=C\C=C\[C@H](C)[C@H](O)[C@@H](C)[C@@H](O)[C@@H](C)[C@H](OC(C)=O)[C@@H]1C` [Rifamycin, reference compound]: the MIC in the data set on M. tuberculosis H37Rv was determined as 0.05 µg/mL (≈ 0.0717 µM); in the data set with M. smegmatis ATCC607 it was 0.25 µg/mL (≈ 0.358 µM). Also, the “antimicrobial action, M. avium 84” value in the data set on M. avium 84 is “growth”.
As to `CC[C@@H](CO)NCCN[C@@H](CC)CO` [Ethambutol, reference compound], the MIC in the data set on M. tuberculosis H37Rv and in the data set with M. smegmatis ATCC607 was 5 µg/mL (≈ 24.5 µM) each time.
As usually defined, the LD50 is the dose at which mortality reaches 50%. As for `O=c1c2ccccc2oc2nc3n(c(=O)c12)CCCS3` [R1=R2=H, 5-oxo-5H-[1]-benzopyrano-[5,6-b]-4-oxo-4H-[1,2]-pyrimido-1,4,5,6-tetrahydro-1,3-thiazine], the MIC stood at 0.6 µg/mL (≈ 2.1 µM) in the data set with M. tuberculosis H37Rv and 0.3 µg/mL (≈ 1.05 µM) against M. smegmatis ATCC607. The entries for the “number of unchanged cells in 100 fields” value in data set [1] (10 mg/l) and in [1] (50 mg/l) were 3000 and 6000, respectively. Besides, the “toxicity of compounds to cells” value in the data set with Vero (100 mg/l) is listed as “toxic”. In addition, in the data set with C. trachomatis D323 (10 mg/l), the “Number of unchanged cells” value stood at 7.200. Further, in “in vivo”, the LD50 at 336 h was over 1500 mg/kg.
Turning to `O=c1c2cc(Br)ccc2oc2nc3n(c(=O)c12)CCCS3` [R1=H, R2=Br, 3-bromo-5-oxo-5H-[1]-benzopyrano-[5,6-b]-4-oxo-4H-[1,2]-pyrimido-1,4,5,6-tetrahydro-1,3-thiazine], the values for the MIC against M. tuberculosis H37Rv and against M. smegmatis ATCC607 were 25 µg/mL (≈ 68.5 µM) and 50 µg/mL (≈ 137 µM), respectively. Also, the “Content of IFN in induction mixture” value in data set [2] (1 μg/ml) came out at 14 ± 0.5 ME/3*10^4 limph./ml; in data set [2] (10 μg/ml), 84 ± 2.5 ME/3*10^4 limph./ml; in [2] (100 μg/ml) it was 192 ± 1.6 ME/3*10^4 limph./ml. Besides, the “Number of unchanged cells” value in the data set on C. trachomatis D323 (100 mg/l) is recorded as 7.000.
In the case of `O=c1c2cc(Cl)ccc2oc2nc3n(c(=O)c12)CCCS3` [R1=H, R2=Cl, 3-chloro-5-oxo-5H-[1]-benzopyrano-[5,6-b]-4-oxo-4H-[1,2]-pyrimido-1,4,5,6-tetrahydro-1,3-thiazine], the MIC against M. tuberculosis H37Rv and against M. smegmatis ATCC607 was 10 µg/mL (≈ 31.2 µM) throughout.
Consider `O=c1c2cc(Br)cc(Br)c2oc2nc3n(c(=O)c12)CCCS3` [R1=R2=Br, 1,3-dibromo-5-oxo-5H-[1]-benzopyrano-[5,6-b]-4-oxo-4H-[1,2]-pyrimido-1,4,5,6-tetrahydro-1,3-thiazine], for which the MIC against M. tuberculosis H37Rv and against M. smegmatis ATCC607 was 0.1 µg/mL (≈ 0.225 µM) in each case. In addition, the “Coefficient of lung mass” value in the data set with M. bovis bovinus 8 is given as 2.30 con. units. For the same molecule, in the data set on M. bovis bovinus 8, the “Index of damage lungs” value is given as 2.3 con. unit. Moreover, the Perished animals in the data set with M. bovis bovinus 8 was found to be 0%. Also, the “Seeding M.tub.” value in the data set with M. bovis bovinus 8 came to 180 CFU. For the same molecule, the “Content of IFN in induction mixture” value in data set [2] (1 μg/ml) was determined as 4.0 ± 0.5 ME/3*10^4 limph./ml; in data set [2] (10 μg/ml) it was 23 ± 1.0 ME/3*10^4 limph./ml; in data set [2] (100 μg/ml), 47 ± 0.8 ME/3*10^4 limph./ml. The molecule also yielded an LD50 at 336 h in “in vivo” of over 1500 mg/kg.
On to `O=c1c2cc([N+](=O)[O-])cc(Cl)c2oc2nc3n(c(=O)c12)CCCS3` [R1=Cl, R2=NO2, 1-chloro-3-nitro-5-oxo-5H-[1]-benzopyrano-[5,6-b]-4-oxo-4H-[1,2]-pyrimido-1,4,5,6-tetrahydro-1,3-thiazine], for which the results for the MIC in the data set with M. tuberculosis H37Rv and in the data set with M. smegmatis ATCC607 were 50 µg/mL (≈ 137 µM) and 100 µg/mL (≈ 273 µM), respectively. In addition, the “Content of IFN in induction mixture” value in data set [2] (1 μg/ml) turned out to be 3.6 ± 0.5 ME/3*10^4 limph./ml; in [2] (10 μg/ml), 18 ± 1.6 ME/3*10^4 limph./ml.
Consider `CC1COc2c(N3CCN(C)CC3)c(F)cc3c(=O)c(C(=O)O)cn1c23` (centres unmarked) [Ofloxacin, reference compound], for which the minimal inhibitory concentration (MIC) with M. tuberculosis H37Rv and against M. smegmatis ATCC607 was 0.5 µg/mL (≈ 1.38 µM) in each case.
Consider `NNC(=O)c1ccncc1` [Isoniazid, hydrazide of izonicotinic acid, reference compound], for which the results for the MIC with M. tuberculosis H37Rv and in the data set with M. smegmatis ATCC607 were 0.1 µg/mL (≈ 0.729 µM) and 1.5 µg/mL (≈ 10.9 µM), respectively. In addition, the “antimicrobial action, M. avium 84” value in the data set on M. avium 84 is “growth”.
For the molecule `O=c1c2cc([N+](=O)[O-])ccc2oc2nc3n(c(=O)c12)CCCS3` [R1=H, R2=NO2, 3-nitro-5-oxo-5H-[1]-benzopyrano-[5,6-b]-4-oxo-4H-[1,2]-pyrimido-1,4,5,6-tetrahydro-1,3-thiazine], the results for the MIC in the data set on M. tuberculosis H37Rv and against M. smegmatis ATCC607 were 50 µg/mL (≈ 151 µM) and 100 µg/mL (≈ 302 µM), respectively. In addition, in data set [1] (10 mg/l), the “number of unchanged cells in 100 fields” value is listed as 6000. For the same molecule, the “toxicity of compounds to cells” value in the data set on Vero (50 mg/l) and in the data set on Vero (100 mg/l) was “toxic” throughout. The “Content of IFN in induction mixture” value is 4.2 ± 0.8 ME/3*10^4 limph./ml in data set [2] (1 μg/ml), 20 ± 1.2 ME/3*10^4 limph./ml in data set [2] (10 μg/ml) and 48 ± 1.2 ME/3*10^4 limph./ml in [2] (100 μg/ml).
The molecule `O=c1c2cc(Cl)cc(Cl)c2oc2nc3n(c(=O)c12)CCCS3` [R1=R2=Cl, 1,3-dichloro-5-oxo-5H-[1]-benzopyrano-[5,6-b]-4-oxo-4H-[1,2]-pyrimido-1,4,5,6-tetrahydro-1,3-thiazine] showed an MIC against M. tuberculosis H37Rv of 0.3 µg/mL (≈ 0.845 µM). The molecule further showed an MIC in the data set with M. smegmatis ATCC607 of 1 µg/mL (≈ 2.82 µM). In the data set with M. bovis bovinus 8, the “Coefficient of lung mass” value is reported as 2.42 con. units, the “Index of damage lungs” value is 2.5 con. unit, the Perished animals was determined as 0% and the “Seeding M.tub.” value is reported as 195 CFU. Besides, in the data set “in vivo”, the LD50 at 336 h is over 1500 mg/kg.
In the data set with M. tuberculosis H37Rv, `[H]/N=C(/N)N[C@H]1[C@H](O)[C@@H](O)[C@H](O[C@@H]2O[C@@H](C)[C@](O)(C=O)[C@H]2O[C@@H]2O[C@@H](CO)[C@H](O)[C@@H](O)[C@@H]2NC)[C@@H](N/C(N)=N\[H])[C@@H]1O` [Streptomycin, reference compound] displayed a minimum inhibitory concentration (MIC) of 0.2 µg/mL (≈ 0.344 µM). Further, the lowest concentration to inhibit growth against M. smegmatis ATCC607 (MIC) was 0.15 µg/mL (≈ 0.258 µM). The “antimicrobial action, M. avium 84” value in the data set on M. avium 84 was “growth”. For the same molecule, in the data set with M. bovis bovinus 8, the “Coefficient of lung mass” value amounted to 2.47 con. units, the “Index of damage lungs” value came out at 2.45 con. unit, the Perished animals was found to be 0% and the “Seeding M.tub.” value turned out to be 200 CFU.
On to `COc1ccc2oc3nc4n(c(=O)c3c(=O)c2c1)CCCS4` [R1=H, R2=OCH3, 3-methoxy-5-oxo-5H-[1]-benzopyrano-[5,6-b]-4-oxo-4H-[1, 2]-pyrimido-1,4,5,6-tetrahydro-1,3-thiazine], for which the results for the MIC in the data set on M. tuberculosis H37Rv and in the data set on M. smegmatis ATCC607 were 50 µg/mL (≈ 158 µM) and 100 µg/mL (≈ 316 µM), respectively.
